Laboratory results taken from patent US10821126B2, “Agent for treating retinopathy” (CARNA HEALTH SUPPORT LTD., priority 2016, dated 2020).
Values joined by “and” are separate entries in the source; they are usually repeats but may differ in a detail not shown here. Identical values can stand only once.

Key:
[1] = test system: diabetic retinopathy having macular edema; assay: Cases of diabetic retinopathy having macular edema, assessed by optical coherence tomography (OCT), HbA1c and vision; assay type: in vivo, human
Protocol: To four cases of diabetic retinopathy having macular edema to which conventional intraocular injection of steroid or anti-VEGF antibody was not effective, the therapeutic agent of the present invention (existing SGLT2 inhibitor) was administered at a normal dosage amount or at a lower dosage amount, and the effect was confirmed. Specifically, for the three cases using dapagliflozin and one case using canagliflozin, the effect was confirmed by assessment using optical coherence tomography (OCT). Person; suffering from type 2 diabetes, accompanied with proliferative retinopathy in both eyes, and macular edema in both eyes. Steroid sub-tenon injection was frequently performed but was treatment-resistant. […], person; suffering from type 2 diabetes, accompanied with proliferative retinopathy in both eyes, and macular edema in both eyes. Steroid sub-tenon injection was performed but was treatment-resistant. […], person; suffering from type 2 diabetes, accompanied with simple diabetic retinopathy in both eyes, and macular edema in right eye. […], person; suffering from type 2 diabetes, accompanied with preproliferative diabetic retinopathy in both eyes, and macular edema in right eye. Steroid intraocular injection was performed to right eye macular edema, but was resistant.

[2] = test system: increase of retinal vascular permeability in db/db mouse; assay: Retinal vascular permeability (retinal albumin amount by western blot) in spontaneous type 2 diabetes model db/db mouse; assay type: in vivo; conditions: oral
Protocol: Subsequently, the amelioration effect on diabetic retinal function (amelioration effect on permeability increase which is a representative abnormality of diabetic retinal vessels) by the therapeutic agent of the present invention (existing SGLT2 inhibitor agent) was confirmed by using spontaneous type 2 diabetes model db/db mouse.
Since 8 weeks after birth of spontaneous type 2 diabetes model db/db mouse, a dosage amount (10 mg/kg/day as luseogliflozin) of luseogliflozin hydrate which is an existing SGLT2 inhibitor agent, with which an antihyperglycemic action is confirmed in mouse was orally administered. Two weeks after administration of SGLT2 inhibitor agent, the mouse was euthanized, and all blood vessels were sufficiently refluxed with 10 ml of phosphate buffer solution (PBS), and the eyeballs were extracted. After isolating retina, the albumin amount in the retinal tissues leaked from the blood vessels was measured by western blott method, to assess the vascular permeability increase. The albumin amount in retina was corrected with […], and is shown by % control by using control db/+ mouse as a standard.
Next, similarly as for luseogliflozin, the function improvement on increase of retinal vascular permeability was assessed using canagliflozin. Canagliflozin hydrate which is an existing SGLT2 inhibitor agent was orally administered for 2 weeks, at a dosage amount (3 mg/kg/day as canagliflozin) with which an antihyperglycemic action is confirmed in mouse, and at a low dosage (0.01 mg/kg/day as canagliflozin) not showing an antihyperglycemic action.

[3] = test system: spontaneous type 2 diabetes model db/db mouse; assay: Effects on body weight, feed intake, urine volume and blood sugar in db/db mouse; assay type: in vivo; conditions: oral, 2 weeks
Protocol: The above-mentioned low dosage (0.01 mg/kg/day as canagliflozin) not showing an antihyperglycemic action was confirmed by the following method.
[…] Effects on body weight, feed intake, urine volume and blood sugar were confirmed.
FIGS. 6 and 7 show the results of fructosamine level which is an index for fasting blood sugar and average blood sugar levels when administering 3 mg/kg/day and 0.01 mg/kg/day of canagliflozin hydrate.

[4] = authorized minimum dosage amount; cited from earlier work
SGLT2 = target: T1, SGLT2 (Homo sapiens, UniProt P31639); conditions: cited from earlier work
T1 sequence (P31639 1-672): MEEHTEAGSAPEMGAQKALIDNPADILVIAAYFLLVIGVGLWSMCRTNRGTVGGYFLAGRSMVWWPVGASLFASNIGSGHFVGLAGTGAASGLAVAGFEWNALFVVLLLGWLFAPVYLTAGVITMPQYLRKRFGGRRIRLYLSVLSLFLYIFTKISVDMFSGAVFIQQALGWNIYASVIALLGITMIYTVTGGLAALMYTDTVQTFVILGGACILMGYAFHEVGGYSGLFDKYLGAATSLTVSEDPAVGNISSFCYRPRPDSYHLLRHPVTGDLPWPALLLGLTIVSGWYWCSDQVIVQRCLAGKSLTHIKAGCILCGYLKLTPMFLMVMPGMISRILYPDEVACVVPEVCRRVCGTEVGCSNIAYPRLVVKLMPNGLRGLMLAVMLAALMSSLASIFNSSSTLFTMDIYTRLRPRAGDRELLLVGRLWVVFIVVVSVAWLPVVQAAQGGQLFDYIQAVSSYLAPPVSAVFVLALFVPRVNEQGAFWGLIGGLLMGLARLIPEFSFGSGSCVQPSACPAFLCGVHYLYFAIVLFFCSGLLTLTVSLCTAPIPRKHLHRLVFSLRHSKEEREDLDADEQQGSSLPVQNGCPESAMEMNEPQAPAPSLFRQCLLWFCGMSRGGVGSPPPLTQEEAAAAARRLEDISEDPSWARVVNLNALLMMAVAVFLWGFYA

Structure (SMILES): Cc1ccc([C@@H]2O[C@H](CO)[C@@H](O)[C@H](O)[C@H]2O)cc1Cc1ccc(-c2ccc(F)cc2)s1 [canagliflozin hydrate]
- blood sugar control ([1]; Case 2, 100 mg/day as canagliflozin): no change in blood sugar control
- HbA1 after administration ([1]; Case 2, 100 mg/day as canagliflozin, 8.0 before administration, hydrate): 8.4 and 8.1 and 7.8
- OCT findings ([1]; Case 2, 100 mg/day as canagliflozin, about 5 months after initiation of administration): decrease of macular retinal thickness, cyst reduction, and significant amelioration of laminar structure
- vision, right eye, after administration ([1]; Case 2, 100 mg/day as canagliflozin, from 0.4): 0.5
- vision, left eye, after administration ([1]; Case 2, 100 mg/day as canagliflozin, from 0.7): 1.2
- increase of retinal albumin amount (retinal vascular permeability) ([2]; 0.01 mg/kg/day as canagliflozin, 2 weeks): significantly ameliorated to the control group level
- increase of retinal albumin amount (retinal vascular permeability) ([2]; 3 mg/kg/day as canagliflozin, 2 weeks): significantly ameliorated to the control group level
- blood sugar ([3]; 0.001 mg/kg/day): no significant decrease
- blood sugar ([3]; 0.01 mg/kg/day, hydrate): no significant blood sugar decrease
- blood sugar ([3]; 0.1 mg/kg/day): no significant decrease
- fructosamine level which is an index for fasting blood sugar and average blood sugar levels ([3]; 3 mg/kg/day, vs non-administered group (FIGS. 6 and 7)): significantly decreased

Structure (SMILES): CCOc1ccc(Cc2cc([C@@H]3O[C@H](CO)[C@@H](O)[C@H](O)[C@H]3O)ccc2Cl)cc1 [dapagliflozin propylene glycol hydrate]
- HbA1 after administration ([1]; Case 1, 2.5 mg/day as dapagliflozin, 6.7 before administration): 6.6
- vision, left eye, after administration ([1]; Case 1, 2.5 mg/day as dapagliflozin, did not change): 1.2
- vision, right eye, after administration ([1]; Case 1, 2.5 mg/day as dapagliflozin, from 0.7): 0.8
- vision after administration ([1]; Case 3, 2.5 mg/day as dapagliflozin, from 0.15): 0.2
- HbA1c after administration ([1]; Case 3, 2.5 mg/day as dapagliflozin, from 8.7): 8.0
- vision ([1]; Case 4, 2.5 mg/day as dapagliflozin, did not change due to severe retinopathy): 0.1
- HbA1c after administration ([1]; Case 4, 2.5 mg/day as dapagliflozin, from 5.9, no change): 6.1%

Structure (SMILES): OC[C@H]1O[C@@H](c2ccc(Cl)c(Cc3ccc(O[C@H]4CCOC4)cc3)c2)[C@H](O)[C@@H](O)[C@@H]1O [empagliflozin]
- maximum blood concentration (Cmax) in the minimum dosage amount, relative to that of canagliflozin [4]: approximately 1/10
- IC50 level showing the inhibition activity, compared with canagliflozin (SGLT2): similar

Structure (SMILES): OC[C@H]1O[C@@H](c2ccc(F)c(Cc3cc4ccccc4s3)c2)[C@H](O)[C@@H](O)[C@@H]1O [ipragliflozin L-proline]
- IC50 level showing the inhibition activity, compared with canagliflozin (SGLT2): similar

Structure (SMILES): CCOc1ccc(Cc2cc([C@@H]3S[C@H](CO)[C@@H](O)[C@H](O)[C@H]3O)c(OC)cc2C)cc1 [luseogliflozin hydrate]
- increase of retinal albumin amount (retinal vascular permeability) ([2]; 10 mg/kg/day as luseogliflozin, two weeks): significantly ameliorated to the control group level
- maximum blood concentration (Cmax) in the minimum dosage amount, relative to that of canagliflozin [4]: approximately 1/10
- IC50 level showing the inhibition activity, compared with canagliflozin (SGLT2): similar

Structure (SMILES): CCc1ccc(Cc2ccc3c(c2)[C@]2(OC3)O[C@H](CO)[C@@H](O)[C@H](O)[C@H]2O)cc1 [tofogliflozin hydrate]
- maximum blood concentration (Cmax) in the minimum dosage amount, relative to that of canagliflozin [4]: approximately 1/10
- IC50 level showing the inhibition activity, compared with canagliflozin (SGLT2): similar
